Laboratory results taken from patent US10517889B2, “Modulators of SMAD7 expression” (Ionis Pharmaceuticals, Inc., priority 2017, dated 2019).
Several values for one entry are separate records, joined by “and”; a condition that tells them apart may be missing. Equal entries are not always repeated.

What was measured:
human SMAD7 mRNA [1] = test: Dose-dependent inhibition of human SMAD7 mRNA expression in Hep3B cells (Example 3, Study 1 and 2); format: cell-based; settings: electroporation; for % inhibition of SMAD7 mRNA expression: approximately 16 hours; for IC50: Study 2 (740-20000 nM)
Method in brief: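 Hep3B cells, 20,000 per well, electroporated with antisense oligonucleotide at 0.31, 1.25, 5.00 or 20.00 μM (first series) or 0.74, 2.22, 6.67 or 20.00 μM (second series). After ~16 h, SMAD7 mRNA measured by RT-qPCR (RTS5062), normalised to RIBOGREEN total RNA. Percent inhibition vs untreated cells; IC50 derived.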

[2] = Plasma chemistry markers after subcutaneous administration in CD-1 mice (Example 6); format: in vivo; settings: CD-1 mice plasma at day 46; 50 mg/kg subcutaneously twice a week for 7 weeks
Description: CD-1® mice (Charles River, Mass.) are a multipurpose mice model, frequently utilized for safety and efficacy testing. The mice were treated with Ionis human SMAD7 antisense oligonucleotides selected from studies described above and evaluated.
Groups of 8-9 week old male CD-1 mice were injected subcutaneously twice a week for 7 weeks with 50 mg/kg of Ionis oligonucleotides (100 mg/kg/week dose). Each group contained 4 mice. One group of male CD-1 mice was injected subcutaneously twice a week for 7 weeks with PBS. […]

[3] = Organ weights after subcutaneous administration in CD-1 mice (Example 6); format: in vivo; settings: end of study, 50 mg/kg subcutaneously twice a week for 7 weeks
Description: Groups of 8-9 week old male CD-1 mice were injected subcutaneously twice a week for 7 weeks with 50 mg/kg of Ionis oligonucleotides (100 mg/kg/week dose). Each group contained 4 mice. One group of male CD-1 mice was injected subcutaneously twice a week for 7 weeks with PBS. Plasma was collected for analysis on day 28.
Ionis SMAD7 oligonucleotides that caused any changes in organ weights outside the expected range for antisense oligonucleotides were excluded from further studies.

human SMAD7 mRNA [4] = test: Dose-dependent inhibition of human SMAD7 mRNA expression in A431 cells, oligonucleotide added without transfection (Example 5, Study 1); format: cell-based; settings: approximately 48 hours; for IC50: SMAD7 mRNA
Description: The newly designed compounds disclosed herein are cEt-modified antisense oligonucleotides. […] The studies described below show a comparison of select cEt-modified gapmers and ION0736697/Mongersen.
A431 cells were plated in collagen I-coated 96-well plates in DMEM with […]. Immediately after plating, 0.08 μM, 0.25 μM, 0.74 μM, 2.22 μM, 6.67 μM, or 20.00 μM concentrations of antisense oligonucleotide were added. The plates were shaken briefly before incubating at 37° C. and 10% CO2. After a treatment period of approximately 48 hours, the cells were washed and lyzed and RNA on 384-well Pall plates with DNase I treatment. SMAD7 mRNA levels were measured by quantitative real-time PCR. Primer probe set RTS5062 was used to measure human SMAD7 mRNA levels. SMAD7 mRNA levels were adjusted according to total RNA content, as measured by RIBOGREEN®. Results are presented as percent inhibition of SMAD7 mRNA expression, relative to untreated control cells.
All Ionis oligonucleotides had greater potency than ION 736697/Mongersen.

murine Smad7 mRNA = test: Dose-dependent inhibition of murine Smad7 mRNA in bEND cells, electroporation (Example 5, Study 2); format: cell-based, mouse; settings: electroporation; for % inhibition of SMAD7 mRNA expression: approximately 16 hours
Description: Many of the Ionis designed oligonucleotides as well as ION 736697/Mongersen are complementary to mouse Smad7 mRNA. […] After a treatment period of approximately 16 hours, the cells were washed and lyzed and RNA on 384-well Pall plates with DNase I treatment. Smad7 mRNA levels were measured by quantitative real-time PCR. Primer probe set RTS1114 (forward sequence […], designated herein as SEQ ID NO: 8; reverse sequence […], designated herein as SEQ ID NO: 9; probe sequence […], designated herein as SEQ ID NO: 10) was used to measure murine Smad7 mRNA levels. Smad7 mRNA levels were adjusted according to total RNA content, as measured by RIBOGREEN®. Results are presented as percent inhibition of Smad7 mRNA expression, relative to untreated control cells.
Many of the Ionis oligonucleotides had greater potency than ION 736697/Mongersen.

[5] = 740 nM, Study 2, relative to untreated control cells

Substance | % inhibition of SMAD7 mRNA expression (human SMAD7 mRNA [1]; [5]) | % inhibition of SMAD7 mRNA expression (human SMAD7 mRNA [1]; 2220 nM, Study 2) | % inhibition of SMAD7 mRNA expression (human SMAD7 mRNA [1]; 6670.0 nM, Study 2) | % inhibition of SMAD7 mRNA expression (human SMAD7 mRNA [1]; 20000.0 nM, Study 2) | IC50 (human SMAD7 mRNA [1]) [µM] | ALT [2] [IU/L] | AST [2] [IU/L] | Albumin [2] [g/dL] | BUN [2] [mg/dL] | Organ weights, Kidneys [3] [g] | Organ weights, Liver [3] [g] | Organ weights, Spleen [3] [g] | % inhibition of SMAD7 mRNA expression (human SMAD7 mRNA [4]; 0.08 μM) [%] | % inhibition of SMAD7 mRNA expression (human SMAD7 mRNA [4]; 0.25 μM) [%] | % inhibition of SMAD7 mRNA expression (human SMAD7 mRNA [4]; 0.74 μM) [%] | % inhibition of SMAD7 mRNA expression (human SMAD7 mRNA [4]; 2.22 μM) [%] | % inhibition of SMAD7 mRNA expression (human SMAD7 mRNA [4]; 6.67 μM) [%] | % inhibition of SMAD7 mRNA expression (human SMAD7 mRNA [4]; 20.00 μM) [%] | IC50 (human SMAD7 mRNA [4]) [µM] | % inhibition of SMAD7 mRNA expression (murine Smad7 mRNA; 0.25 μM) [%] | also measured
829994 (GGAGGCAGGGCCGCGA; 3-10-3 cEt gapmer, further chemistry not given here) [compound 829994] | 25% | 54% | 69% | 80% | 1 | 65 | 90 | 2.9 | 25 | 0.7 | 2.6 | 0.3 | – | – | – | – | – | – | – | – | –
830121 (AGAATCAAGCCCTGGC; 3-10-3 cEt gapmer, further chemistry not given here) [compound 830121] | 37% and 54% | 48% and 63% | 69% and 79% | 85% and 86% | < 0.7 | 198 | 151 | 1.9 | 21 | 0.6 | 2.4 | 0.2 | 11 | 18 | 27 | 21 | 35 | 44 | > 20 | 0 | % inhibition of SMAD7 mRNA expression (murine Smad7 mRNA; 0.74 μM): 6%; % inhibition of SMAD7 mRNA expression (murine Smad7 mRNA; 2.22 μM): 12%; % inhibition of SMAD7 mRNA expression (murine Smad7 mRNA; 6.67 μM): 17%; % inhibition of SMAD7 mRNA expression (murine Smad7 mRNA; 20.00 μM): 20%; IC50 (murine Smad7 mRNA): > 20 µM
830037 (antisense CTATTGGCTGATCTGG; 3-10-3 cEt gapmer, further chemistry not given here) [compound 830037] | 30% | 56% | 70% | 87% | 3 | – | – | – | – | – | – | – | 10 | 31 | 29 | 42 | 61 | 67 | 3.4 | 0 | % inhibition of SMAD7 mRNA expression (murine Smad7 mRNA; 0.74 μM): 6%; % inhibition of SMAD7 mRNA expression (murine Smad7 mRNA; 2.22 μM): 1%; % inhibition of SMAD7 mRNA expression (murine Smad7 mRNA; 6.67 μM): 0%; % inhibition of SMAD7 mRNA expression (murine Smad7 mRNA; 20.00 μM): 0%; IC50 (murine Smad7 mRNA): > 20 µM
